# Measurements reported in patent publication US20090155209A1, “NOVEL MACROCYCLIC INHIBITORS OF HEPATITIS C VIRUS REPLICATION” (priority 2007, published 2009).
# Experiment: Single ascending dose study, fasted and fed: safety and non-compartmental plasma PK
# Assay type: in vivo, healthy volunteers (human)
# Details: single dose, healthy volunteers
# Experimental: A single ascending dose (SAD) study of the compound 100 was conducted in healthy volunteers. The compound 100 was administered as monotherapy both with and without food. The safety and pharmacokinetic profile of the single dose of the compound 100 was assessed.
# Interim, blinded data were used for Pharmacokinetic (PK) study relating to food effects. With the exception of the 400 mg cohort, eight subjects were studied at each dose (single doses of 100, 200, or 800 mg of the sodium salt of the compound 100, which may be referred to herein as ITMN-191, administered in the fasting state). In the 400 mg cohort, ten subjects received single 400 mg doses of ITMN-191 under both fasted and fed conditions with a 5-day washout period between dosing. In the 100 mg cohort, subjects were sampled within 1 hour before dosing and at 0.5, 1, 1.5, 2, 2.5, 3, 4, 6, 8, 12, 18, 24, 32 and 48 hours after dosing. For subsequent cohorts, subjects were sampled within 1 hour before dosing and at 0.25, 0.5, 1, 1.5, 2, 2.5, 3, 4, 6, 8, 12, 18, 24, and 32 hours after dosing. Nominal (not actual) sampling times were used for the analysis. PK samples were analyzed using liquid chromatography-tandem mass spectrometry (LC/MS/MS with API 4000 mass spectrometer) following solid-phase extraction. The upper and lower limits of quantitation (ULOQ and LLOQ) are 100 and 0.01 ng/mL, respectively.
# Pharmacokinetic parameter estimates were calculated using non-compartmental methods (implemented using Microsoft Excel®). Half-lives were determined by visual inspection of the log concentration-time plots to choose the terminal phase (minimum of three detectable observations). Using linear regression of the chosen terminal phase observations, elimination rate constants were calculated as the negative slope of the regression line and half-life as the natural log of 2 divided by the elimination rate constant.
# Ten subjects received single 1600 mg doses of ITMN-191 under both fasted and fed conditions with a 5-day washout period between dosing. For each condition, subjects were sampled within 1 hour before dosing and at 0.25, 0.5, 1, 1.5, 2, 2.5, 3, 4, 6, 8, 12, 18, 24, and 32 hours after dosing. Pharmacokinetic parameter estimates were calculated using non-compartmental methods. Half-life (t1/2) was determined by visual inspection of the log concentration-time plots to choose the terminal phase (minimum of three detectable observations). Using linear regression of the chosen terminal phase observations, elimination rate constants were calculated as the negative slope and half-life as the natural log of 2 divided by the elimination rate constant.
smiles,measurement,setting,value
CC(C)(C)OC(=O)N[C@H]1CCCCC/C=C\[C@@H]2C[C@@]2(C(=O)NS(=O)(=O)C2CC2)NC(=O)[C@@H]2C[C@@H](OC(=O)N3Cc4cccc(F)c4C3)CN2C1=O [compound 100],tolerability,all doses,well tolerated
same,"exposure when administered with food, compared to without food",,higher than anticipated exposure
